US20210214560A1, “COMPOUND, COLORING COMPOSITION, INK, TONER, COLORING RESIN COMPOSITION, AND COMPOSITION FOR DYEING FIBER” (FUJIFILM Corporation, priority 2018, published 2021)

What was measured:
Format in all cases: physicochemical
[1] = Evaluation of heat stability (heat resistance), powder heated at 180° C. for 5 minutes; settings: oven 180° C. for 5 minutes, A/A0×100, absorbance in tetrahydrofuran
Procedure: Heat stability of each compound was evaluated by the following procedure. 10 mg of the powder of each compound was dissolved in 500 mL of tetrahydrofuran, and the absorption spectrum was measured to obtain a reference absorbance (A0). On the other hand, 10 mg of the powder of each compound was weighed in a 4 cm square aluminum cup, placed in an oven, and heated at 180° C. for 5 minutes. The entire amount of the powder after heating was dissolved in 500 mL of tetrahydrofuran, and the absorption spectrum was measured to obtain an absorbance (A) after the heating test. The residual rate of each compound was calculated by the following expression to evaluate heat stability.
Residual rate of compound (%)=A/A0×100

[2] = Production of toner (melting and mixing with resin at 150° C.); settings: 3 g compound with 100 g styrene-acrylic acid ester copolymer, melted and mixed at 150° C.
Procedure: After mixing and pulverizing 3 g of the compound according to the embodiment of the present invention (compound (1-36)) and 100 g of a resin for toner [styrene-acrylic acid ester copolymer; HIMER TB-1000F (trade name, manufactured by Sanyo Chemical Industries, Ltd.)] with a ball mill, the resultant was heated at 150° C. to be melted and mixed, and the results were cooled, roughly pulverized using a hammer mill, and then finely pulverized using a fine pulverizer with an air-jet system. Furthermore, particles which have a particle diameter of 1 to 20 μm were classified and selected to produce a toner.
900 g of carrier iron powder (EFV250/400, trade name, manufactured by Powdertech Co., Ltd.) were uniformly mixed with 10 g of the toner to prepare a developer. Using this developer, copying was performed with a dry type plain paper electrophotographic copier [NP-5000, trade name, manufactured by Canon Inc.].

[3] = Evaluation of maximum absorption wavelength (absorption spectrum in tetrahydrofuran solution); settings: 1×10^−6 mol/L, optical path length 10 mm (Table 7)
[4] = Production of coloring resin composition (kneading with polybutylene terephthalate at 190° C.); settings: 1 g colorant with 100 g polybutylene terephthalate, biaxial extruder, cylinder temperature 190° C.
Procedure: Using a henschel mixer, a blend of 100 g of polybutylene terephthalate (manufactured by Wintech Polymer Ltd., trade name, DURANEX 2002, melting point: 225° C.) and 1 g of the compound according to the embodiment of the present invention (compound (1-48)) was supplied to a biaxial extruder (equipment: TEX28V manufactured by Japan Steel Works, Ltd., screw speed: 200 rotations per minute (rpm)), and kneading was performed at a cylinder temperature of 190° C. to obtain a coloring resin pellet (coloring resin composition). The torque of the extruder was stable and extrusion could be continued, and the discharged strands could be stably conveyed to the pelletizer.
A coloring resin pellet was obtained in the same manner as in Example 25, except that the compound (1-48) of Example 25 was changed to OIL BLACK HBB (manufactured by Orient Chemical Industries Co., Ltd., trade name).

Which “Residual rate of compound” value [1] does the source give for `CC1(C)Nc2cccc3c(N=Nc4ccc(N=Nc5ccccc5[N+](=O)[O-])c5ccccc45)ccc(c23)N1` [(1-36)] here?
Its value is 98%.

And the “Pyrolysis in melting and mixing in the toner production” value [2]?
Its value is “Pyrolysis in melting and mixing in the toner production was reduced”.

And the Absorption maximum wavelength [3]?
The Absorption maximum wavelength was 638 nm.

And the “Molar light absorption coefficient” value [3]?
Its value is 30,100 L · mol^−1 · cm^−1.

For `CC(=O)c1ccccc1N=Nc1ccc(N=Nc2ccc3c4c(cccc24)NC(C)(C)N3)c2ccccc12` [(1-48)], which “Residual rate of compound” value [1] is on record?
The value was 99%.

What about the “Contamination due to pyrolysis in kneading of coloring resin pellet” value [4] of the same molecule?
The value was “No contamination due to pyrolysis was observed”.

What about the Absorption maximum wavelength [3] of the same molecule?
Its Absorption maximum wavelength is 624 nm.

What about the “Molar light absorption coefficient” value [3] of the same molecule?
The value was 34,100 L · mol^−1 · cm^−1.
